The test system of the assay is adult rat cardiomyocytes. Description: Ca2+ imaging (sparks, waves, transients) with ISO stimulation. The class given is cell-based. Particulars: ISO 100 nM. Here is the method: Male Wistar rats (Janvier, France) weighing ~300 g were sedated in an anaesthesia chamber by inhalation of 5% isoflurane and 95% O2. The heart was excised under deep surgical anaesthesia, cannulated, and then retrogradely perfused through the aorta on a modified Langendorff setup with cell isolation solution containing (in mM, pH adjusted to 7.4, 37°C): NaCl 130, Hepes 25, D‐glucose 22, KCl 5.4, MgCl2 0.5, NaH2PO4 0.4, and a flow rate of 4 mL/min. After the heart was cleaned of blood, collagenase type II (2 mg/mL, Worthington Biochemical Corp, Lakewood, NJ, USA) was added to the perfusate, and the hearts digested for ~10 min. Following digestion, hearts were cut down, and the left ventricle dissected into pieces, which were transferred into 10 mL cell isolation solution with 250 μL BSA (40 mg/mL) and ~0.2 mg Deoxyribonuclease I (Worthington Biochemical Corporation, Lakewood, NJ, USA). After light agitation (~2 min), the supernatant was filtered (200 μm nylon mesh), and isolated cardiomyocytes were allowed to sediment by gravity. The cardiomyocytes were then washed in isolation buffer containing 1 mg/mL BSA, with a stepwise increase in Ca^2+ concentration up to 0.2 mM. Animal experiments were approved by the Norwegian Research Authority (FOTS ID: 30114). Adult rat cardiomyocytes were treated with 10 μM of SN, SN‐db‐short or scram in 0.2 mM Ca^2+ cell isolation solution for 1 h. These loading concentrations are higher than those used in our previous studies of SN, where we had sought to examine endogenous, circulating levels, rather than potentially therapeutic levels applied exogenously. […] Ca^2+ transients were recorded in linescan mode using a Zeiss LSM 7 Live confocal microscope (Jena, Germany), at a frame rate of 1.5 ms and a pixel size of 0.16 μm. These recordings were normalised to resting fluorescence values to create F/F0 images and assess Ca^2+ transient amplitude. The rate of Ca^2+ transient decline was assessed by measurements of the decay time constant (Tau). Spontaneous sparks and waves were measured during a 9 s pause in the electrical excitation. […]

Peptide text beside a SMILES is read from it. * marks the point of attachment. Biotin = O=C1N[C@H]2[C@H](CS[C@H]2CCCCC(=O)*)N1; Ahx = NCCCCCC(=O)O

For the compound `CC(C)C[C@H](NC(=O)[C@H](CCC(=O)O)NC(=O)[C@H](CCC(N)=O)NC(=O)[C@H](Cc1ccccc1)NC(=O)[C@H](Cc1ccccc1)NC(=O)[C@H](CO)NC(=O)[C@H](CCC(=O)O)NC(=O)[C@H](Cc1ccccc1)NC(=O)[C@@H](NC(=O)[C@H](C)NC(=O)[C@H](CC(C)C)NC(=O)[C@H](CO)NC(=O)[C@H](CCC(N)=O)NC(=O)[C@@H]1CCCN1C(=O)[C@@H](NC(=O)[C@H](Cc1ccc(O)cc1)NC(=O)[C@H](CCC(N)=O)NC(=O)[C@H](CCC(=O)O)NC(=O)CCCCCNC(=O)CCCC[C@@H]1SC[C@@H]2NC(=O)N[C@@H]21)[C@@H](C)O)[C@@H](C)O)C(=O)NCC(=O)N[C@@H](CCCCN)C(=O)O` [SN‐db‐short] ({Biotin-Ahx}-EQYTPQSLATFESFFQELGK-OH; N-terminus and C-terminus assumed), the “ISO-induced increase of Ca2+ transient amplitude and acceleration of Ca2+ transient decay” value (10 μM peptide 1 h, field stimulation 1 Hz, Figure 5B–D, n = 22–73, 3–6 rats) was “significantly attenuated”. The “Ca2+ spark incidence under ISO” value (10 μM peptide 1 h pre-treatment, 9 s pause after 1 Hz pacing, Figure 4D, n = 35–85 cells from 3 to 6 rats) is given as “strong reduction”. Besides, for the setting “10 μM peptide 1 h pre-treatment, 9 s pause after 1 Hz pacing, Figure 4E, n = 35–66 cells from 3 to 5 rats”, the “Ca2+ wave incidence under ISO” value is “strong reduction”.
